Laboratory results: PMC11249239 (PLOS ONE, 2024)
Values joined by “and” are separate entries in the source; they are usually repeats but may differ in a detail not shown here. Equal entries are not always repeated.

Columns and labels:
MCF7 cells [1] = assay: Cell cycle analysis by flow cytometry (FACS); type: cell-based
Method: Cells were treated with SP-1-303 for 24, 48, and 72 hours. DMSO and ionizing radiation (IR) were used on controls. The cell cycle distributions were analyzed by flow cytometry. The cells were harvested at the indicated times, washed twice with cold phosphate-buffered saline (PBS), and fixed with citrate/DMSO buffer for overnight. The cells were resuspended in PBS containing 40 μg/ml of DNase-free RNase A and 50 μg/ml of propidium iodide, and the cell cycle distributions were measured in a fluorescence-activated cell sorter (FACSort) from Becton Dickinson. DNA content was quantified using ModFit LT 3.0 software (Verity Software House, Inc).

HDAC5 = HDAC5 (Homo sapiens, UniProt Q9UQL6); assay: HDAC5 activity inhibition (data not shown); type: biochemical; settings: read-out: IC50 class IIa HDAC5 inhibition
MCF7 cells [2] = assay: Radiation clonogenic survival assay, MCF7; type: cell-based; settings: 0.3 μM for 24 h then graded γ-radiation, DMSO control 1.5 Gy
Method: Logarithmically growing cells were treated with vehicle (0.1% Dimethyl Sulfoxide) or SP-1-303 (0.3 μM) for 24 h followed by sham or γ-radiation using a Mark-30 irradiator with a 137Cs source at a fixed dose rate of 2.71 Gy/min. Cells were exposed to graded doses at room temperature. After 10–14 days, cells were fixed and stained with crystal violet, and colonies were counted. The surviving fractions of treated cells were normalized using the plating efficiencies of untreated controls. Radiation survival curves were generated by fitting to the single-hit, multitarget model.

[3] = system: acetylated histone 3 lysine 9 (H3K9ac); assay: Western blot, acetylation of histone H3 lysine 9; type: cell-based; settings: MCF7 and MDA-MB-231; 1 μM; within 0.5 h
Description: Following treatment of cells with SP-1-303 over a time course, total or nuclear proteins were extracted and analyzed on 4–20% trisglycine gradient sodium dodecyl sulfate polyacrylamide gel electrophoresis (SDS-PAGE). Subsequently, membranes were probed with antibodies targeting specific proteins in accordance with the manufacturers’ protocols, including ATM (ab78), p-BRCA1 (ab90528), BRCA1 (ab191042), p-p53/S15 (ab1431), acetylated H3K9 (ab12179) from Abcam, as well as p-ATM (# 5883) and p53 (#9282) from Cell Signaling, α-tubulin (T6793) and β-actin (A3854) from Sigma-Aldrich, ER-α (cat# MA1-80216, Invitrogen) and HDAC2 (BML-SA402. Enzo). Protein images were captured using ECL Prime Western Blotting Detection Reagents (Cat#. RPN2232, Amersham) and the Amersham Imager 600. For immunofluorescent analysis, formalin fixed cells were permeabilized with 0.1% Triton X-100 in TBS for 10 minutes at room temperature, followed by blocking with 1% Blocker BSA for 15 minutes at room temperature. Cells were then probed with a phospho-ATM monoclonal antibody (MA5-15185) and DyLight 488 goat anti-mouse IgG secondary antibody at room temperature. Actin was stained with DyLight 554 phalloidin, while nuclei were stained with 4’,6-diamidino-2-phenylindole dye (DAPI). Images were captured using a Nikon Epi Fluorescent microscopy.

[4] = Plasma pharmacokinetics after intravenous administration; type: in vivo, Sprague-Dawley rats; settings: 20 mg/kg IV
Description: A commercial vendor (Medicilon, Inc.) performed the pharmacokinetic studies. Male Sprague-Dawley Rats (n = 8) were received from Sino-British SIPPR/BK Lab Animal Ltd., Shanghai, and 6 animals were placed on study. All studies were approved by the Institutional Animal Care and Use Committee (Protocol #: 19098–17002) of Medicilon Preclinical Research-Shanghai LLC, Pudong Shanghai 201200, P.R. China. The animals were allowed to acclimatize for at least 5 d before beginning the study. The procedure was performed under general anesthesia with 3–5% isoflurane for blood collections via jugular vein. All efforts were made to minimizing suffering and least stressful. The compound was dissolved in 5% DMSO + 40% PEG400 + 55% PBS to yield a final concentration of 2 mg/ml. The tolerated dose (20 mg/Kg) was administered via intravenous (IV) in rats. After IV administration, blood samples were collected via jugular vein at various time points (0, 1, 2, 4, 6, and 8 h) under general anesthesia with 3–5% isoflurane. Samples were then placed into tubes containing K2EDTA and centrifuged at 8,000 rpm for 6 min to obtain plasma. The resulting plasma were analyzed by LCMS. Following completion of the study, all surviving animals were euthanized with CO2, followed by cervical dislocation. Pharmacokinetic analysis was determined using a non-compartmental module of WinNonlin Professional 5.2. The maximum measured plasma concentrations (Cmax) and the time of Cmax (tmax) were derived directly from the data. The area under the curve (AUC) was calculated using the log-linear trapezoidal method rule up to the last data point and was extrapolated to infinity with the following formula: Clast/β, where Clast is the last measured concentration time point. The elimination half-life was calculated with the equation t1/2 = 0.693/β, where β is the terminal rate constant. The clearance (Cl = dose/AUC) rate was also evaluated.

HDAC1 = target: T1, HDAC1 (Homo sapiens, UniProt Q13547); assay: In vitro HDAC isoform inhibition, purified recombinant HDAC1; type: biochemical; settings: purified recombinant protein; ± margin of error of 95% confidence interval; read-out: IC50 HDAC inhibition activity in vitro, HDAC 1
T1 construct: purchased PBS Bioscience [sic] (San Diego, CA); host or cells: Sf9 insect cells / baculovirus
Description: (§1) In vitro HDAC enzyme inhibition assays utilized HeLa cell extract for pan-HDACs with the substrate Fluor-Lys following the manufacturer’s protocol (BIOMOL/ENZO, Plymouth Meeting, PA). For isoform assays, purified HDAC1, HDAC3, and HDAC6 recombinant proteins produced by expressing epitope-tagged full-length proteins in the sf9 baculovirus expression vector system were purchased from PBS Bioscience (San Diego, CA). […] The reaction commenced with the addition of HDAC substrate at room temperature and proceeded for 30 minutes. Termination of the reaction was achieved by adding 50 μL of Fluor de Lys (TM) Assay Developer. The fluorophore was excited at 360 nm and emitted light at 460 nm. Relative fluorescence was measured using a FlexStation II plate reader (Molecular Devices, Sunnyvale, CA).

[5] = system: pan-HDACs (HeLa cell extract); assay: In vitro HDAC enzyme inhibition, HeLa cell nuclear extract (Fluor de Lys); type: biochemical; settings: ± margin of error of 95% confidence interval
Description: as §1

HDAC8 = HDAC8 (Homo sapiens, UniProt Q9BY41); assay: HDAC8 activity inhibition (data not shown); type: biochemical
HDAC8, sequence (Q9BY41 whole entry, species assumed): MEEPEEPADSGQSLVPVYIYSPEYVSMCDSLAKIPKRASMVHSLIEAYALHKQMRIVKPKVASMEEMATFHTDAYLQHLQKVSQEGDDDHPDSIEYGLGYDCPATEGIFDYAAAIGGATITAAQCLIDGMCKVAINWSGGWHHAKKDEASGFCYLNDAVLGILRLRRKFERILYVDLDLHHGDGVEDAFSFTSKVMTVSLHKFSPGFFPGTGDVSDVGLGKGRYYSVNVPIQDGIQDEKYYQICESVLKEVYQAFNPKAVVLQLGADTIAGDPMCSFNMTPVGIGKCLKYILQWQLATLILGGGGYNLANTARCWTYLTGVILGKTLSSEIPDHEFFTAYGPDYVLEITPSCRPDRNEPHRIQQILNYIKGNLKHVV

T1 sequence (Q13547 whole entry, canonical isoform): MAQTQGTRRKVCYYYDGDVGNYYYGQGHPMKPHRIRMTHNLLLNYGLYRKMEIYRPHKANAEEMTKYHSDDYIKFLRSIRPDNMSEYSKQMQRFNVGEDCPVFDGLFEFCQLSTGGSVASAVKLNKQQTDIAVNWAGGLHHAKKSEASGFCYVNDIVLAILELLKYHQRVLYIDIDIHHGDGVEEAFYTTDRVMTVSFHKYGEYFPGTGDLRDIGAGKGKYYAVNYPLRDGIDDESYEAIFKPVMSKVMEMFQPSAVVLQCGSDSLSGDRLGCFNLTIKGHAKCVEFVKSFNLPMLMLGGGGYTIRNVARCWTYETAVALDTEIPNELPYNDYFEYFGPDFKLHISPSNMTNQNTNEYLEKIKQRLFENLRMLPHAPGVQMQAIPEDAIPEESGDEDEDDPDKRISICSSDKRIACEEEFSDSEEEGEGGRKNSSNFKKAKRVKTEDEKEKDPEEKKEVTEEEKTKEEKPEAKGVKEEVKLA
HDAC5, sequence (Q9UQL6 whole entry, species assumed): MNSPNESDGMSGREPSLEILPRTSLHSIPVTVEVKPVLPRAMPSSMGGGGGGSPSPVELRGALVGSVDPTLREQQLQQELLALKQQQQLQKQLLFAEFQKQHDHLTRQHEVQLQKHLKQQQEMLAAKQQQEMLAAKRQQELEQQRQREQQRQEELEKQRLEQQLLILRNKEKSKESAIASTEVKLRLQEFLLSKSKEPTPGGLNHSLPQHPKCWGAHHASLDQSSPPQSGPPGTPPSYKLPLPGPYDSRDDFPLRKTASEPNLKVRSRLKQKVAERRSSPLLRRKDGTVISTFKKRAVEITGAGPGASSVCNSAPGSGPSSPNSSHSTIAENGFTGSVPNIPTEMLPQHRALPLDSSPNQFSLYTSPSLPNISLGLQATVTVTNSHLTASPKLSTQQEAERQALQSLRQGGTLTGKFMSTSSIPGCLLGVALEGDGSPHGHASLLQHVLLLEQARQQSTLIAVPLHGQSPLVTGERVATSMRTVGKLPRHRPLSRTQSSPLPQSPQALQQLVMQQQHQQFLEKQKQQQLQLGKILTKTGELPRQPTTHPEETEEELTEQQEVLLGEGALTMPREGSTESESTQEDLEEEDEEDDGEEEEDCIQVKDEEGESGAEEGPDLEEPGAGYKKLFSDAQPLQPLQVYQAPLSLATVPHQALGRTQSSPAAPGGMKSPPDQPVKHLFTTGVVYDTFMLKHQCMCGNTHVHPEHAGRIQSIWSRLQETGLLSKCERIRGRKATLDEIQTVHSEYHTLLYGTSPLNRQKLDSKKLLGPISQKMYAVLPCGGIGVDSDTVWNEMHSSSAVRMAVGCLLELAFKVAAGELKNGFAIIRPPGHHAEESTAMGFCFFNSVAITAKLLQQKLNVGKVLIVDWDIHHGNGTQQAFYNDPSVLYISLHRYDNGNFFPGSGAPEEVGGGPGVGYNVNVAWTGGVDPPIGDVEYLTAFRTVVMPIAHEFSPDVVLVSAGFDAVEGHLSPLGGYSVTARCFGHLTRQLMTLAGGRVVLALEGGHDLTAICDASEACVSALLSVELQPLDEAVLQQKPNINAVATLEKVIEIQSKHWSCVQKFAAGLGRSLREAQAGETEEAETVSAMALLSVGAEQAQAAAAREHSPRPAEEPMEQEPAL

## Cc1[nH]c2ccccc2c1C1=C(c2c(C)[nH]c3ccccc23)C(=O)N(CCCCCCC(=O)NO)C1=O [SP-1-303]
MCF7 cells [1]; 24 HR
  % Cells in G1: 89.44%
  % Cells in G2/M: 6.19%
  % Cells in S: 4.37%
MCF7 cells [1]; 24 HR + IR
  % Cells in G2/M: 5.12%
  % Cells in S: 3.91%
MCF7 cells [1]; 24 HR + IR (combination with radiation)
  % Cells in G1: 91% and 90.97%
MCF7 cells [1]; 48 HR
  % Cells in G1: 71.02%
  % Cells in G2/M: 6.75%
  % Cells in S: 22.24%
MCF7 cells [1]; 72 HR
  % Cells in G1: 81.35%
  % Cells in G2/M: 6.21%
  % Cells in S: 12.45%
HDAC5
  IC50: > 20000 nM
MCF7 cells [2]
  D0, radiation clonogenic survival: 1.3 Gy
[3]
  acetylation of histone H3 lysine 9 (H3K9): significantly enhanced
[4]; male, Sprague-Dawley, plasma, rat, mean value, read-out: tmax, time to reach maximum plasma concentration
  Tmax: 4.98 min
[4]; male, Sprague-Dawley, plasma, rat, read-out: t1/2, elimination half-life (converted)
  half-life: 75.6 min
[4]; rat plasma, 4 h
  compound remaining in plasma at 4 h: 1%
[4]; rat
  AUC, area under the curve: 5227.55 ng/ml x h
HDAC1
  IC50: 12 ± 1 nM
[5]
  IC50: 120 ± 58 nM
HDAC8
  IC50: 310 nM
